This note sets out measurements from patent US5942527A, “Hydrazones, hydrazines, semicarbazones and thiosemicarbazones derived from pyridyl ketones as anticonvulsant drugs and excitatory amino acid antagonists” (K & K Biosciences, Inc., priority 1997, dated 1999).

For data set [1], the system named is maximal electroshock seizures. Put plainly: Maximal electroshock seizure (MES) test, mouse, i.p. In kind it is in vivo, mouse (male Carworth Farms #1). The settings on record: for ASP Group Classification, MES Test: mouse, 30, 100 and 300 mg/kg; for ED50: Mus musculus, ip; for ED50 / P.I., TD50/ED50, MES: mice, Table 5. The source says: The hydrazones, hydrazines and semicarbazones derived from pyridyl ketones and the resulting orally effective anticonvulsant compositions of this invention are useful in the treatment of convulsive disorders. […] A series of hydrazones, hydrazines and semicarbazones derived from pyridyl ketones of this invention has been evaluated for anticonvulsant activity by the intraperitoneal (i.p.) and by the oral (p.o.) route using two standard seizure models in the mouse and in the rat, the maximal electroshock seizure (MES) test and the subcutaneous pentylenetetrazole (Metrazole) seizure threshold (scMet) test. […] In addition, the compounds are evaluated in a new model, the threshold tonic extension (TTE) model. […] Thus active compounds that may be missed in the MES and […] the mouse, i.p., can be detected in the TTE test. Based on the screening results, the compounds are placed in one of three categories. […] Class II compounds show anticonvulsant activity at doses greater than 100 mg/kg or show activity at 100 mg/kg which is not reinforced by similar activity at 300 mg/kg. […] The Class I compounds are those which are most promising as anticonvulsants. […] In mice. i.p.: All compounds are emulsified in 0.5% methylcellulose. The solvent has been tested for anticonvulsant and toxic effects and found to introduce no significant bias into the testing of anticonvulsant activity. The compounds are administered intraperitoneally in a volume of 0.01 ml/gm to male Carworth Farms #1 mice weighing about 20 gm. All compounds are tested at least at three dose levels (30, 100 and 300 mg/kg) at 30 minutes and 4 hours after their administration. The Maximal Electroshock Seizure Test (MES): Maximal electroshock seizures are elicited with a 60 Hz alternating current of 50 mA intensity in mice and about 150 mA intensity in rats (5-7 times that necessary to elicit minimal electroshock seizures), delivered for 0.2 sec via corneal electrodes. A drop of 0.9% saline is instilled in the eye prior to application of the electrodes in order to […]. Abolition of the hind limb tonic extension component of the seizure is defined as protection and results are expressed as number of animals protected/number of animals tested. Anticonvulsant Quantification in Mice, i.p.: The ED50 values are determined in the MES, scMet and rotorod ataxia test.
In general terms: The maximal electroshock test induces tonic seizures with an electrical stimulus.

A further data set deals with TTE seizure. The data set can be described thus: Threshold tonic extension (TTE) test, mouse, i.p. Format: in vivo. The source says: (§1) The hydrazones, hydrazines and semicarbazones derived from pyridyl ketones and the resulting orally effective anticonvulsant compositions of this invention are useful in the treatment of convulsive disorders. […] A series of hydrazones, hydrazines and semicarbazones derived from pyridyl ketones of this invention has been evaluated for anticonvulsant activity by the intraperitoneal (i.p.) and by the oral (p.o.) route using two standard seizure models in the mouse and in the rat, the maximal electroshock seizure (MES) test and the subcutaneous pentylenetetrazole (Metrazole) seizure threshold (scMet) test. […] In addition, the compounds are evaluated in a new model, the threshold tonic extension (TTE) model. […] Thus active compounds that may be missed in the MES and scMet tests in the mouse, i.p., can be detected in the TTE test.
The Threshold Tonic Extension (TTE) Test: The TTE test (Piredda et al., 1985) is a clinically nonselective, electroconvulsive seizure model that identifies compounds that raise seizure threshold as well as those that prevent seizure spread. […] The test is similar to the MES screen but uses a lower level of electrical current. The lower current makes the TTE test more sensitive but less discriminate than the MES screen. This ability makes the model attractive because it allows us to identify compounds that may be missed by our standard identification screen.
Twenty mice are pretreated intraperitoneally with 100 mg/kg of the test substance. At several time intervals (1/4, 1/2, 1, 2, and 4 hours) post treatment with the test drug, four mice at each time point are challenged with 12.5 mA of electrical current for 0.2 seconds via corneal electrodes. This produces a TTE seizure in the animals (Woodbury and Davenport, 1952).
For each time interval results are expressed as a ratio of the number of animals protected over the number tested. […] The positives may represent compounds acting by novel mechanisms.

Data set [2] has as its system maximal electroshock seizures. The data set can be described thus: Maximal electroshock seizure (MES) test, rat, p.o. Format: in vivo, rat (Sprague-Dawley). The settings on record: for ED50 / responders at 30 mg/kg: po; for responders at 30 mg/kg: several time points over a 4 hour period, read-out: Percent Protection at 30 mg/kg, in the MES test; for P.I., TD50/ED50, MES: Table 6; for protection at 30 mg/kg, MES Test: Table 7. The source says: The hydrazones, hydrazines and semicarbazones derived from pyridyl ketones and the resulting orally effective anticonvulsant compositions of this invention are useful in the treatment of convulsive disorders. […] A series of hydrazones, hydrazines and semicarbazones derived from pyridyl ketones of this invention has been evaluated for anticonvulsant activity by the intraperitoneal (i.p.) and by the oral (p.o.) route using two standard seizure models in the mouse and in the rat, the maximal electroshock seizure (MES) test and the subcutaneous pentylenetetrazole (Metrazole) seizure threshold (scMet) test. […] In addition, the compounds are evaluated in a new model, the threshold tonic extension (TTE) model. […] Thus active compounds that may be missed in the MES and […] the mouse, i.p., can be detected in the TTE test. The Maximal Electroshock Seizure Test (MES): Maximal electroshock seizures are elicited with a 60 Hz alternating current of 50 mA intensity in mice and about 150 mA intensity in rats (5-7 times that necessary to elicit minimal electroshock seizures), delivered for 0.2 sec via corneal electrodes. A drop of 0.9% saline is instilled in the eye prior to application of the electrodes in order to […]. Abolition of the hind limb tonic extension component of the seizure is defined as protection and results are expressed as number of animals protected/number of animals tested. […] This species will be the subject of the complete anticonvulsant quantification test evaluation as described above, but after oral (gavage) administration of the candidate compound.

The subject of data set [3] is subcutaneous pentylenetetrazole (Metrazole) seizure. The data set can be described thus: Subcutaneous pentylenetetrazole (Metrazole) seizure threshold test (scMet), rat, p.o. Format: in vivo, rat (Sprague-Dawley). The settings on record: po, rats, Table 6.
Text: as §1
(§2) The Subcutaneous Pentylenetetrazol (Metrazole) Seizure Treshold Test (scMET): A 0.5 % solution of 85 mg/kg of pentylenetetrazole is administered subcutaneously in the posterior midline 30 minutes or 4 hours after drug administration to the animal. Failure to observe even a threshold seizure (a single episode of clonic spasms of at least 5 sec duration) is defined as protection and the results are expressed as number of animals protected/number of animals tested.
(§3) This species will be the subject of the complete anticonvulsant quantification test evaluation as described above, but after oral (gavage) administration of the candidate compound.

The nature of data set [4]: in vivo. The arrangement: species or system rat (Sprague-Dawley). The settings on record: rat, po. How it is done:
(§4) Neurotoxicity is determined by the rotorod ataxia test in mice and by the positional sense test and gait and stance test in the rat.
as §3
Neurological deficit in rats is examined by the positional sense test and gait and stance test. […] Inability to do so rapidly indicates a neurologic deficit. In the gait and stance test, a neurologic deficit is indicated by a circular or a zigzag gait, ataxia, abnormal spread of the legs, abnormal body posture, tremor, hyperactivity, lack of exploratory behavior, somnolence, stupor, or catalepsy.

The subject of data set [5] is subcutaneous pentylenetetrazole (Metrazole) seizure. The data set can be described thus: Subcutaneous pentylenetetrazole (Metrazole) seizure threshold test (scMet), mouse, i.p. In kind it is in vivo, mouse (male Carworth Farms #1). The note with it: ip, mice, Table 5.
Text: as §1
In mice. i.p.: All compounds are emulsified in 0.5% methylcellulose. The solvent has been tested for anticonvulsant and toxic effects and found to introduce no significant bias into the testing of anticonvulsant activity. The compounds are administered intraperitoneally in a volume of 0.01 ml/gm to male Carworth Farms #1 mice weighing about 20 gm. All compounds are tested at least at three dose levels (30, 100 and 300 mg/kg) at 30 minutes and 4 hours after their administration.
as §2
(§5) Anticonvulsant Quantification in Mice, i.p.: The ED50 values are determined in the MES, scMet and rotorod ataxia test.

Data set [6] is described as follows: in vivo. The arrangement: species or system mouse (male Carworth Farms #1). The note with it: mouse, ip. Here is the method:
as §4
Neurotoxicity is evaluated in mice by the rotorod ataxia test. The animal is placed on a wooden rod of 1 and 1/8" diameter rotating at 6 rpm. Normal mice can remain on a rod rotating at this speed indefinitely.
as §5

Where [7] appears, read: Rattus norvegicus, rats, Table 6, read-out: ED50, MES.
Setting [8] is: rat, Table 7, read-out: Anticonvulsant Efficacy (ED50, mg/kg) in the MES Test.

Regarding `CC(=NNc1ccc(Cl)c(Cl)c1)c1ccncc1` [Compound 1, Methyl 4-pyridyl ketone 3,4-dichlorophenylhydrazone], in data set [1], the “ASP Group Classification, MES Test” value is “III (Those failing to demonstrate anticonvulsant activity at doses up to 300 mg/kg are considered inactive)”. The ED50 was 71 mg/kg in the data set on TTE seizure (Mus musculus, ip, mice, Table 5); 16.9 mg/kg in data set [2] (setting [7]); 16.9 mg/kg in data set [2] (setting [8]); greater than 250 mg/kg in data set [3]. Moreover, the “ASP Group Classification, TTE Test” value in the data set on TTE seizure (mouse, 100 mg/kg) was “I (They demonstrate anticonvulsant activity in either the MES test or the scMet test, or both at doses of 100 mg/kg or 30 mg/kg without signs of neurological deficit and thus have an estimated protective index of greater than 1)”. Further, the “TTE Test (Percent Protection)” value in the data set on TTE seizure (mouse, 100 mg/kg) was found to be 62%. In addition, the responders at 30 mg/kg in data set [2] (rat) lay in the range of 25 to 95%. Further, in data set [2] (rats), the “P.I., TD50/ED50, MES” value is recorded as greater than 29.64. In “in vivo [4]”, this compound returned a TD50 greater than 500 mg/kg.
For `CC(=NNc1cccc(Cl)c1)c1ccncc1` [Compound 3, Methyl 4-pyridyl ketone 3-chlorophenyl hydrazone], the ED50 in data set [1] is 81.8 mg/kg; in data set [2] (setting [7]), 36.6 mg/kg; in data set [5], greater than 500 mg/kg; in data set [3] it was greater than 250 mg/kg. The results for the “P.I., TD50/ED50, MES” value in data set [1] and in data set [2] (rats) were 5.39 and greater than 13.65, respectively. The “ASP Group Classification, MES Test” value in data set [1] is “II (show anticonvulsant activity at doses greater than 100 mg/kg or show activity at 100 mg/kg which is not reinforced by similar activity at 300 mg/kg)”. For the same compound, the responders at 30 mg/kg in data set [2] (rat) fell in the range of 50 to 100%. Moreover, the TD50 is 441 mg/kg in the data set “in vivo [6]” and greater than 500 mg/kg in the data set “in vivo [4]”.
With `CC(=NNc1ccc(Cl)c(Cl)c1)c1cccnc1` [Compound 4, Methyl 3-pyridyl ketone 3,4-dichlorophenylhydrazone], in data set [1], the ED50 was determined as 69.8 mg/kg; the “P.I., TD50/ED50, MES” value is greater than 7.17; the “ASP Group Classification, MES Test” value is “I (They demonstrate anticonvulsant activity in either the MES test or the scMet test, or both at doses of 100 mg/kg or 30 mg/kg without signs of neurological deficit and thus have an estimated protective index of greater than 1)”. Besides, the responders at 30 mg/kg in data set [2] (rat) was 25 to 100%. In addition, in data set [5], the ED50 is greater than 500 mg/kg. Also, in “in vivo [6]”, the TD50 is greater than 500 mg/kg.
For `CC(=NNc1ccc(Cl)cc1)c1cccnc1` [Compound 5, Methyl 3-pyridyl ketone 4-chlorophenylhydrazone], in data set [1], the “ASP Group Classification, MES Test” value was “I (They demonstrate anticonvulsant activity in either the MES test or the scMet test, or both at doses of 100 mg/kg or 30 mg/kg without signs of neurological deficit and thus have an estimated protective index of greater than 1)”. In addition, the ED50 in data set [2] (setting [7]) is 7.79 mg/kg; in data set [2] (setting [8]) it was 7.8 mg/kg; in data set [3] it was greater than 250 mg/kg. Further, the responders at 30 mg/kg in data set [2] (rat) is 50 to 100%. Moreover, in data set [2] (rats), the “P.I., TD50/ED50, MES” value is reported as greater than 64.12. In addition, the TD50 in “in vivo [4]” is greater than 500 mg/kg.
Turning to `NC(=O)NN=C(c1ccccc1)c1ccncc1` [Compound 15, Phenyl 4-pyridyl ketone semicarbazone], in data set [1], the ED50 was 57.5 mg/kg; the “P.I., TD50/ED50, MES” value amounted to 2.79; the “ASP Group Classification, MES Test” value was “I (They demonstrate anticonvulsant activity in either the MES test or the scMet test, or both at doses of 100 mg/kg or 30 mg/kg without signs of neurological deficit and thus have an estimated protective index of greater than 1)”. In data set [2] (rat), the responders at 30 mg/kg lay within 50 to 100% and the “protection at 30 mg/kg, MES Test” value was 50-100%. Further, in data set [5], the ED50 was greater than 300 mg/kg. Further, in the data set “in vivo [6]”, the TD50 worked out at 160 mg/kg.
With `NC(=O)NN=C(c1ccccc1)c1cccnc1` [Compound 16, Phenyl 3-pyridyl ketone semicarbazone], in data set [1], the ED50 came out at 21.8 mg/kg; the “P.I., TD50/ED50, MES” value is on record as 3.87; the “ASP Group Classification, MES Test” value is “I (They demonstrate anticonvulsant activity in either the MES test or the scMet test, or both at doses of 100 mg/kg or 30 mg/kg without signs of neurological deficit and thus have an estimated protective index of greater than 1)”. Besides, in data set [2] (rat), the responders at 30 mg/kg fell in the range of 75 to 100% and the “protection at 30 mg/kg, MES Test” value is 75-100%. The TD50 in “in vivo [6]” was 84.6 mg/kg.
